Reference: US20070213394A1 (priority 2004, published 2007)
Where two headings read alike, the source gives them in different places.

Columns and labels:
[1] = target: T1, human kappa opioid receptor (Homo sapiens, UniProt P41145); experiment: biochemical; assay type: binding
T1 construct: expressed in transfected cells; host or cells: Chinese hamster ovary cells (CHO-hKOR), membranes

[2] = target: T1, human kappa opioid receptor; experiment: biochemical; details: for Emax: 1 h, read-out: Efficacy

T1 sequence (P41145 whole entry): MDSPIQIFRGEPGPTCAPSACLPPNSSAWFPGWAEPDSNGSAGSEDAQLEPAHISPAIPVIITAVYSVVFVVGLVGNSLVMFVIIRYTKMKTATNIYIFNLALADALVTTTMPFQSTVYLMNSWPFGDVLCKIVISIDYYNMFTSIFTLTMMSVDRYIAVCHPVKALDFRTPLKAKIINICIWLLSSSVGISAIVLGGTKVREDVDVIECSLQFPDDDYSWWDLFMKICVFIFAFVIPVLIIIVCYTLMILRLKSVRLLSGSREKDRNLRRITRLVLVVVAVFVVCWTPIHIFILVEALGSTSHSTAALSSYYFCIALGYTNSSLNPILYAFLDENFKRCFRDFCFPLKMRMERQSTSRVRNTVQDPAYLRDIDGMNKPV

| Compound | Ki [1] | Emax [2] | further results |
| --- | --- | --- | --- |
| C#CCCCCOC(=O)C1CC(OC(C)=O)C(=O)C2C1(C)CCC1C(=O)OC(c3ccoc3)CC12C (centres unmarked) [Compound 51] | 679 ± 112 nM | 104 ± 16.5% | EC50 [2]: 224 ± 4 nM |
| CC(=O)OC1CC(C(=O)N2CCCC2C(=O)OCc2ccccc2)C2(C)CCC3C(=O)OC(c4ccoc4)CC3(C)C2C1=O (centres unmarked) [Compound 103] | 210 ± 32 nM | 100% | EC50 [2]: 348 ± 26 nM |
| COC(=O)C1CC(NC(C)C)C(=O)C2C1(C)CCC1C(=O)OC(c3ccoc3)CC12C (centres unmarked) [Compound 210a, 2-(N-isopropyl)-salvinorin] | 17.6 ± 3.1 nM | 99% | EC50 [2]: 18.9 ± 0.6 nM |
| CCNC1CC(C(=O)OC)C2(C)CCC3C(=O)OC(c4ccoc4)CC3(C)C2C1=O (centres unmarked) [Compound 209a, 2-(N-ethyl)-salvinorin] | 65 ± 24 nM |  | EC50 [2]: 72.8 ± 4 nM |
| CNC(=O)[C@@H]1C[C@H](OC(C)=O)C(=O)[C@H]2[C@@]1(C)CC[C@H]1C(=O)O[C@H](c3ccoc3)C[C@]21C [Compound 219, C(4)-N-methylamide salvinorin A] |  |  | Ki ([1]; read-out: Ki): > 1000 nM |
| CCN(C(C)=O)[C@H]1C[C@@H](C(=O)OC)[C@]2(C)CC[C@H]3C(=O)O[C@H](c4ccoc4)C[C@]3(C)[C@H]2C1=O [Compound 216a, 2-(N-ethylacetamide)-salvinorin] |  | 104% |  |
| COC(=O)C1CC(OC)C(=O)C2C1(C)CCC1C(=O)OC(c3ccoc3)CC12C (stereo not drawn) [Compound 205b, 2-epi-(O-methyl)-salvinorin B] | > 10000 nM |  |  |
| CCC(=O)N(CC)[C@@H]1C[C@@H](C(=O)OC)[C@]2(C)CC[C@H]3C(=O)O[C@H](c4ccoc4)C[C@]3(C)[C@H]2C1=O [Compound 217b, 2-epi-(N-ethylpropionamide)-salvinorin] |  | 96% |  |
| CC(=O)OC1CC(C(=O)NCC(=O)OCc2ccccc2)C2(C)CCC3C(=O)OC(c4ccoc4)CC3(C)C2C1=O (centres unmarked) [Compound 100] | 470 ± 92 nM | 105% | EC50 [2]: 227 ± 15 nM |
| COC(=O)[C@@H]1C[C@H](OC(=O)[C@H](C)N)C(=O)C2[C@@]1(C)CC[C@H]1C(=O)O[C@H](c3ccoc3)C[C@]21C (some centres unmarked) [Compound 25] | > 10000 nM |  |  |
| CCCCCOC(=O)C1CC(OC(C)=O)C(=O)C2C1(C)CCC1C(=O)OC(c3ccoc3)CC12C (centres unmarked) [Compound 40] | > 10000 nM |  |  |
| CC(=O)OC1CC(C(=O)N2CCCC2C(=O)OCc2ccccc2)C2(C)CCC3C(=O)OC(c4ccoc4)CC3(C)C2C1=O (centres unmarked) [Compound 104] | > 10000 nM |  |  |
| COC(=O)C1CC(NC(C)=O)C(=O)C2C1(C)CCC1C(=O)OC(c3ccoc3)CC12C (centres unmarked) [Compound 212a, 2-(acetamide)-salvinorin] | 149 ± 1 nM |  | EC50 [2]: 188 ± 2 nM |
| COC(=O)[C@@H]1C[C@@H](N)C(=O)C2[C@@]1(C)CC[C@H]1C(=O)O[C@H](c3ccoc3)C[C@]21C (stereo partly drawn) [Compound 207b, 2-epi-aminosalvinorin] | 223 ± 123 nM | 84% | EC50 [2]: 1370 ± 155 nM |
| CCNCC1CC(OC(C)=O)C(=O)C2C1(C)CCC1C(=O)OC(c3ccoc3)CC12C (stereo not drawn) [C8-epi-compound 225, 8-epi-4-(N-ethylamino)methyl salvinorin A] |  |  | Ki ([1]; read-out: Ki): > 10000 nM |
| CCCCCCCCOC(=O)C1CC(OC(C)=O)C(=O)C2C1(C)CCC1C(=O)OC(c3ccoc3)CC12C (centres unmarked) [Compound 42] | > 10000 nM |  |  |
| COC(=O)[C@@H]1C[C@H](OC(=O)Nc2ccccc2)C(=O)C2[C@@]1(C)CC[C@H]1C(=O)O[C@H](c3ccoc3)C[C@]21C (some centres unmarked) [Compound 86] | 282 ± 13 nM | 93% | EC50 [2]: 197 ± 39 nM |
| COC(=O)[C@@H]1C[C@H](OC(=O)[C@H](C)NC(C)=O)C(=O)C2[C@@]1(C)CC[C@H]1C(=O)O[C@H](c3ccoc3)C[C@]21C (some centres unmarked) [Compound 91] | 176 ± 5.5 nM | 93% | EC50 [2]: 219 ± 25 nM |
| CCO[C@H]1C[C@@H](C(=O)OC)[C@]2(C)CC[C@H]3C(=O)O[C@H](c4ccoc4)C[C@]3(C)C2C1=O (some centres unmarked) [Compound 15, 2-ethoxy-salvinorin B] |  | 103% |  |
| CC(=O)O[C@H]1C[C@@H](CO)[C@]2(C)CCC3C(=O)O[C@H](c4ccoc4)C[C@]3(C)[C@H]2C1=O (some centres unmarked) [Compound 222, O-demethyl-18-deoxysalvinorin A] | > 10000 nM |  |  |
| CNC(=O)C1CC(OC(C)=O)C(=O)C2C1(C)CCC1C(=O)OC(c3ccoc3)CC12C (stereo not drawn) [C8-epi-compound 219, 8-epi-C(4)-N-methylamide salvinorin A] |  |  | Ki ([1]; read-out: Ki): 1390 ± 218 nM |
| COC(=O)[C@@H]1C[C@H](OCc2ccccc2)C(=O)C2[C@@]1(C)CC[C@H]1C(=O)O[C@H](c3ccoc3)C[C@]21C (some centres unmarked) [Compound 17, 2-benzyloxy-salvinorin B] | 75.7 ± 5.9 nM |  | EC50 [2]: 161 ± 14 nM |
| CC(=O)O[C@H]1C[C@@H](C(=O)O)[C@]2(C)CC[C@@H]3C(=O)O[C@H](c4ccoc4)C[C@]3(C)C2C1=O (stereo partly drawn) [Compound 31, epi-demethyl Salvinorin] | 17.3 nM | 93 ± 5% | EC50 [2]: 84 nM |
| CNC(=O)O[C@H]1C[C@@H](C(=O)OC)[C@]2(C)CC[C@H]3C(=O)O[C@H](c4ccoc4)C[C@]3(C)C2C1=O (some centres unmarked) [Compound 10, 2-(O—(N-methyl)formamide)-salvinorin B] | 83 ± 9 nM | 81% | EC50 [2]: 201 ± 10 nM |
| 2-(N,N-dimethylamino)-salvinorin [Compound 19] |  |  | Ki ([1]; read-out: Ki): 90.9 ± 2.5 nM; EC50 ([2]; read-out: EC50): 343 ± 12 nM |
| CC(=O)OC1CC(CN(C)C)C2(C)CCC3C(=O)OC(c4ccoc4)CC3(C)C2C1=O (stereo not drawn) [C8-epi-compound 226, 8-epi-4-(N,N-dimethylamino)methyl salvinorin A] |  |  | Ki ([1]; read-out: Ki): > 10000 nM |

| Compound | Ki [1] | Emax [2] | further results |
| --- | --- | --- | --- |
| COC(=O)[C@@H]1C[C@@H](N(C)C(C)=O)C(=O)C2[C@@]1(C)CC[C@H]1C(=O)O[C@H](c3ccoc3)C[C@]21C (stereo partly drawn) [Compound 80, 2-epi-(N-methylacetamide)-salvinorin] |  | 106% |  |
| 8-epi-O-demethyl-18-deoxysalvinorin A [C8-epi-compound 222] |  |  | Ki ([1]; read-out: Ki): 1000 ± 269 nM |
| CCCOC(=O)C1CC(OC(C)=O)C(=O)C2C1(C)CCC1C(=O)OC(c3ccoc3)CC12C (centres unmarked) [Compound 54] | > 10000 nM |  |  |
| CNCC1CC(OC(C)=O)C(=O)C2C1(C)CCC1C(=O)OC(c3ccoc3)CC12C (stereo not drawn) [C8-epi-compound 224, 8-epi-4-(N-methylamino)methyl salvinorin A] |  |  | Ki ([1]; read-out: Ki): > 10000 nM |
| C=CCOC(=O)C1CC(OC(C)=O)C(=O)C2C1(C)CCC1C(=O)OC(c3ccoc3)CC12C (centres unmarked) [Compound 56] | > 10000 nM |  |  |
| CCC(=O)OC1CC(C(=O)OC)C2(C)CCC3C(=O)OC(c4ccoc4)CC3(C)C2C1=O (stereo not drawn) [Compound 203b, 2-epi-salvinorin B propionate] | 641 ± 122 nM |  |  |
| CCC(=O)N(C)C1CC(C(=O)OC)C2(C)CCC3C(=O)OC(c4ccoc4)CC3(C)C2C1=O (centres unmarked) [Compound 215a, 2-(N-methylpropionamide)-salvinorin] | 1.6 ± 0.1 nM |  |  |
| COC(=O)[C@@H]1C[C@H](OC(=O)CNC(C)=O)C(=O)C2[C@@]1(C)CC[C@H]1C(=O)O[C@H](c3ccoc3)C[C@]21C (some centres unmarked) [Compound 26] | > 10000 nM |  |  |
| COC(=O)[C@@H]1C[C@H](OC(=O)CN(C)C)C(=O)C2[C@@]1(C)CC[C@H]1C(=O)O[C@H](c3ccoc3)C[C@]21C (some centres unmarked) [Compound 12, 2-(2′-(N,N-dimethylamino)acetate) salvinorin B] | > 10000 nM |  |  |
| CCC(=O)N[C@H]1C[C@@H](C(=O)OC)[C@]2(C)CC[C@H]3C(=O)O[C@H](c4ccoc4)C[C@]3(C)[C@H]2C1=O [Compound 213a, 2-(propionamide)-salvinorin] |  | 109% |  |
| CC(=O)OC1CC(C(=O)NC(C)C(=O)OCc2ccccc2)C2(C)CCC3C(=O)OC(c4ccoc4)CC3(C)C2C1=O (centres unmarked) [Compound 99] | > 10000 nM |  |  |
| CCCCOC(=O)C1CC(OC(C)=O)C(=O)C2C1(C)CCC1C(=O)OC(c3ccoc3)CC12C (centres unmarked) [Compound 35] | > 10000 nM |  |  |
| CCOC(=O)C1CC(OC(C)=O)C(=O)C2C1(C)CCC1C(=O)OC(c3ccoc3)CC12C (centres unmarked) [Compound 33] | > 10000 nM |  |  |
| CCC(=O)N(CC)[C@H]1C[C@@H](C(=O)OC)[C@]2(C)CC[C@H]3C(=O)O[C@H](c4ccoc4)C[C@]3(C)[C@H]2C1=O [Compound 217a, 2-(N-ethylpropionamide)-salvinorin] |  | 100% |  |
| CCC(=O)N[C@@H]1C[C@@H](C(=O)OC)[C@]2(C)CC[C@H]3C(=O)O[C@H](c4ccoc4)C[C@]3(C)[C@H]2C1=O [Compound 213b, 2-epi-(propionamide)-salvinorin] |  | 102% |  |
| COC(=O)[C@@H]1C[C@H](OC(=O)CN(C)C)C(=O)C2[C@@]1(C)CC[C@H]1C(=O)O[C@H](c3ccoc3)C[C@]21C (some centres unmarked) [Compound 27] | > 10000 nM |  |  |
| CCCC(=O)OC1CC(C(=O)OC)C2(C)CCC3C(=O)OC(c4ccoc4)CC3(C)C2C1=O (stereo not drawn) [Compound 204b, 2-epi-salvinorin B butyrate] | 665 ± 100 nM |  |  |
| CCOC1CC(C(=O)OC)C2(C)CCC3C(=O)OC(c4ccoc4)CC3(C)C2C1=O (stereo not drawn) [Compound 206b, 2-epi-(O-ethyl)-salvinorin B] | > 10000 nM |  |  |
| CC(=O)OC1CC(C(=O)N(C)C)C2(C)CCC3C(=O)OC(c4ccoc4)CC3(C)C2C1=O (centres unmarked) [Compound 221, C(4)-N,N-dimethylamide salvinorin A] | > 10000 nM |  |  |
| COC(=O)[C@@H]1C[C@H](O)C(=O)C2[C@@]3(C)C[C@@H](c4ccoc4)OC(=O)[C@H]3CC[C@]21C (some centres unmarked) [Compound 5, Episalvinorin B] |  | 102% |  |
| CC(=O)OC1CC(C(=O)NC(Cc2cnc[nH]2)C(=O)OCc2ccccc2)C2(C)CCC3C(=O)OC(c4ccoc4)CC3(C)C2C1=O (centres unmarked) [Compound 105] | > 10000 nM |  |  |
| COC(=O)[C@@H]1C[C@H](O)C(=O)C2[C@@]1(C)CC[C@H]1C(=O)O[C@H](c3ccoc3)C[C@]21C (some centres unmarked) [Compound 1, salvinorin B] |  | 98% |  |
| CC(=O)OC1CC(C(=O)OCc2ccccc2)C2(C)CCC3C(=O)OC(c4ccoc4)CC3(C)C2C1=O (centres unmarked) [Compound 37] | > 10000 nM |  |  |
| CCN(C(C)=O)[C@@H]1C[C@@H](C(=O)OC)[C@]2(C)CC[C@H]3C(=O)O[C@H](c4ccoc4)C[C@]3(C)[C@H]2C1=O [Compound 216b, 2-epi-(N-ethylacetamide)-salvinorin] |  | 95% |  |
| CN[C@@H]1C[C@@H](C(=O)OC)[C@]2(C)CC[C@H]3C(=O)O[C@H](c4ccoc4)C[C@]3(C)C2C1=O (some centres unmarked) [Compound 11, 2-(N-methylamino)-salvinorin] | > 10000 nM |  |  |
| C#CCCOC(=O)C1CC(OC(C)=O)C(=O)C2C1(C)CCC1C(=O)OC(c3ccoc3)CC12C (centres unmarked) [Compound 53] | > 10000 nM |  |  |
